Laboratory results from patent publication US4656165A, “Aminomethyl penem compounds” (priority 1983, dated 1987).
In brackets after ≈: the same amount, converted by molar mass.

Tests used:
[1] = system: Staphylococcus aureus 10 B; assay: Antibiotic activity in vitro (MIC); assay type: cell-based
[2] = system: Staphylococcus aureus 2999i+p+; assay: Antibiotic activity in vitro (MIC); assay type: cell-based
[3] = system: Staphylococcus aureus A 124; assay: Antibiotic activity in vitro (MIC); assay type: cell-based; details: A124
[4] = system: Staphylococcus aureus Wood 46; assay: Antibiotic activity in vitro (MIC); assay type: cell-based; details: WOOD46
[5] = system: Streptococcus pyogenes Aronson 1129; assay: Antibiotic activity in vitro (MIC); assay type: cell-based; details: ARONSON1129
[6] = system: Streptococcus pneumoniae III/84; assay: Antibiotic activity in vitro (MIC); assay type: cell-based
[7] = system: Neisseria meningitidis 1316; assay: Antibiotic activity in vitro (MIC); assay type: cell-based
[8] = system: Neisseria gonorrhoeae 1317/4; assay: Antibiotic activity in vitro (MIC); assay type: cell-based
[9] = system: Haemophilus influenzae NCTC 4560; assay: Antibiotic activity in vitro (MIC); assay type: cell-based; details: NCTC4560
[10] = system: Escherichia coli 205; assay: Antibiotic activity in vitro (MIC); assay type: cell-based
[11] = system: Escherichia coli 205 R + TEM; assay: Antibiotic activity in vitro (MIC); assay type: cell-based; details: read-out: in vitro MIC
[12] = system: Escherichia coli 16; assay: Antibiotic activity in vitro (MIC); assay type: cell-based
[13] = system: Escherichia coli 2018; assay: Antibiotic activity in vitro (MIC); assay type: cell-based
[14] = system: Escherichia coli UB 1005; assay: Antibiotic activity in vitro (MIC); assay type: cell-based; details: UB1005
[15] = system: Escherichia coli DC 2; assay: Antibiotic activity in vitro (MIC); assay type: cell-based; details: DC2
[16] = system: Escherichia coli B-1385; assay: Antibiotic activity in vitro (MIC); assay type: cell-based; details: B1385
[17] = system: Klebsiella pneumoniae 327; assay: Antibiotic activity in vitro (MIC); assay type: cell-based
[18] = system: Serratia marcescens 344; assay: Antibiotic activity in vitro (MIC); assay type: cell-based
[19] = system: Enterobacter cloacae P 99; assay: Antibiotic activity in vitro (MIC); assay type: cell-based; details: P99, read-out: in vitro MIC
[20] = system: Enterobacter cloacae ATCC 13047; assay: Antibiotic activity in vitro (MIC); assay type: cell-based; details: ATCC13047
[21] = system: Proteus mirabilis 774; assay: Antibiotic activity in vitro (MIC); assay type: cell-based
[22] = system: Proteus mirabilis 1219; assay: Antibiotic activity in vitro (MIC); assay type: cell-based
[23] = system: Proteus rettgeri 856; assay: Antibiotic activity in vitro (MIC); assay type: cell-based; details: Providencia rettgeri
[24] = system: Proteus morganii 2359; assay: Antibiotic activity in vitro (MIC); assay type: cell-based; details: Morganella morganii
[25] = system: Proteus morganii 1518; assay: Antibiotic activity in vitro (MIC); assay type: cell-based; details: Morganella morganii
[26] = system: Pseudomonas aeruginosa ATCC 12055; assay: Antibiotic activity in vitro (MIC); assay type: cell-based; details: ATCC12055
[27] = system: Pseudomonas aeruginosa K 799/61; assay: Antibiotic activity in vitro (MIC); assay type: cell-based; details: K799/61, read-out: in vitro MIC
[28] = system: Pseudomonas aeruginosa 143738R; assay: Antibiotic activity in vitro (MIC); assay type: cell-based
[29] = system: Clostridium perfringens; assay: microbe, parasite or virus in culture; assay type: cell-based; details: read-out: in vitro MIC
[30] = system: Bacteroides fragilis L 01; assay: Antibiotic activity in vitro (MIC); assay type: cell-based; details: L01
[31] = molecular target: T1, dehydropeptidase from human kidneys (Homo sapiens, UniProt P16444); assay: Stability towards the enzyme dehydropeptidase from human kidneys; assay type: in vitro ADME; details: for half-life period under the action of renal dehydropeptidase compared with compound B: comparison with the racemate compound B, in words; for half-life: renal dehydropeptidase, enzyme dehydropeptidase from human kidneys, read-out: t1/2 (half-life period), stability towards dehydropeptidase (converted)
T1 construct: dehydropeptidase from human kidneys; from tissue; host or cells: human kidneys
T1 sequence (P16444 17-411): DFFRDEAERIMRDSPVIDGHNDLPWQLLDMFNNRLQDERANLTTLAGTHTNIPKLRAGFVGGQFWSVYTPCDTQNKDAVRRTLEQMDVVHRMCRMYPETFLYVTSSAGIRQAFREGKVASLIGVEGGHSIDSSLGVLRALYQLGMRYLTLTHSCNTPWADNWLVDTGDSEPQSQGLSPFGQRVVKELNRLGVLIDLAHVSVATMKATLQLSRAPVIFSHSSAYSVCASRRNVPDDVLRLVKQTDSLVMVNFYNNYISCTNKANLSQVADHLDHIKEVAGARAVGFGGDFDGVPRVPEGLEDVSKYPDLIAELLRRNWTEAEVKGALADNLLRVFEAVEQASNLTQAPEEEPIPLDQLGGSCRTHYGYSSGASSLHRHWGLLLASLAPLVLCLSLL
Excerpt: The stability of compounds A, B and C towards the enzyme dehydropeptidase from human kidneys is as follows (expressed in half-life periods t1/2): […]

SMILES	MIC [1] [µg/mL]	MIC [2] [µg/mL]	MIC [3] [µg/mL]	MIC [4] [µg/mL]	MIC [5] [µg/mL]	MIC [6] [µg/mL]	MIC [7] [µg/mL]	MIC [8] [µg/mL]	MIC [9] [µg/mL]	MIC [10] [µg/mL]	MIC [11] [µg/mL]	MIC [12] [µg/mL]	MIC [13] [µg/mL]	MIC [14] [µg/mL]	MIC [15] [µg/mL]	MIC [16] [µg/mL]	MIC [17] [µg/mL]	MIC [18] [µg/mL]	MIC [19] [µg/mL]	MIC [20] [µg/mL]	further results
C[C@@H](O)[C@H]1C(=O)N2C(C(=O)O)=C(CN)S[C@H]12 [compound A, (5R,6S)-2-aminomethyl-6-[(1'R)-1-hydroxyethyl]-2-penem-3-carboxylic acid]	0.05 (≈ 0.205 µM)	0.05 (≈ 0.205 µM)	0.1 (≈ 0.409 µM)	0.05 (≈ 0.205 µM)	0.2 (≈ 0.819 µM)	0.1 (≈ 0.409 µM)	0.5 (≈ 2.05 µM)	0.5 (≈ 2.05 µM)	1 (≈ 4.09 µM)	2 (≈ 8.19 µM)	4 (≈ 16.4 µM)	4 (≈ 16.4 µM)	2 (≈ 8.19 µM)	4 (≈ 16.4 µM)	8 (≈ 32.8 µM)	4 (≈ 16.4 µM)	2 (≈ 8.19 µM)	4 (≈ 16.4 µM)	4 (≈ 16.4 µM)	4 (≈ 16.4 µM)	MIC [21]: 1 µg/mL (≈ 4.09 µM); MIC [22]: 2 µg/mL (≈ 8.19 µM); MIC [23]: 0.5 µg/mL (≈ 2.05 µM); MIC [24]: 0.5 µg/mL (≈ 2.05 µM); MIC [25]: 2 µg/mL (≈ 8.19 µM); MIC [26]: 0.05 µg/mL (≈ 0.205 µM); MIC [27]: 0.1 µg/mL (≈ 0.409 µM); MIC [28]: 0.5 µg/mL (≈ 2.05 µM); MIC [29]: 2 µg/mL (≈ 8.19 µM); MIC [30]: 0.5 µg/mL (≈ 2.05 µM); half-life period under the action of renal dehydropeptidase compared with compound B [31]: considerably greater half-life period
NCC1=C(C(=O)O)N2C(=O)[C@H](CO)[C@H]2S1 [compound C, (5R,6S)-2-aminomethyl-6-hydroxymethyl-2-penem-3-carboxylic acid]	0.2 (≈ 0.869 µM)	0.5 (≈ 2.17 µM)	1 (≈ 4.34 µM)	0.2 (≈ 0.869 µM)	2 (≈ 8.69 µM)	0.5 (≈ 2.17 µM)	1 (≈ 4.34 µM)	1 (≈ 4.34 µM)	1 (≈ 4.34 µM)	1 (≈ 4.34 µM)	2 (≈ 8.69 µM)	2 (≈ 8.69 µM)	1 (≈ 4.34 µM)	2 (≈ 8.69 µM)	4 (≈ 17.4 µM)	2 (≈ 8.69 µM)	1 (≈ 4.34 µM)	2 (≈ 8.69 µM)	4 (≈ 17.4 µM)	4 (≈ 17.4 µM)	MIC [21]: 1 µg/mL (≈ 4.34 µM); MIC [22]: 4 µg/mL (≈ 17.4 µM); MIC [23]: 0.5 µg/mL (≈ 2.17 µM); MIC [24]: 1 µg/mL (≈ 4.34 µM); MIC [25]: 2 µg/mL (≈ 8.69 µM); MIC [26]: 0.2 µg/mL (≈ 0.869 µM); MIC [27]: 0.5 µg/mL (≈ 2.17 µM); MIC [28]: 2 µg/mL (≈ 8.69 µM); MIC [29]: 32 µg/mL (≈ 139 µM); MIC [30]: 2 µg/mL (≈ 8.69 µM); half-life period under the action of renal dehydropeptidase compared with compound B [31]: considerably greater half-life period; half-life [31]: 5.5 h
C[C@@H](O)[C@H]1C(=O)N2C(C(=O)O)=C(CN)S[C@H]12 (relative stereo) [compound B, (1'R,5R,6S+1'S,5S,6R)-2-aminomethyl-6-(1'hydroxyethyl) -2-penem-3-carboxylic acid, reference compound]	0.1 (≈ 0.409 µM)	0.2 (≈ 0.819 µM)	0.2 (≈ 0.819 µM)	0.1 (≈ 0.409 µM)	0.5 (≈ 2.05 µM)	0.2 (≈ 0.819 µM)	1 (≈ 4.09 µM)	1 (≈ 4.09 µM)	2 (≈ 8.19 µM)	8 (≈ 32.8 µM)	8 (≈ 32.8 µM)	8 (≈ 32.8 µM)	4 (≈ 16.4 µM)	16 (≈ 65.5 µM)	16 (≈ 65.5 µM)	8 (≈ 32.8 µM)	4 (≈ 16.4 µM)	8 (≈ 32.8 µM)	8 (≈ 32.8 µM)	16 (≈ 65.5 µM)	MIC [21]: 4 µg/mL (≈ 16.4 µM); MIC [22]: 8 µg/mL (≈ 32.8 µM); MIC [23]: 1 µg/mL (≈ 4.09 µM); MIC [24]: 2 µg/mL (≈ 8.19 µM); MIC [25]: 4 µg/mL (≈ 16.4 µM); MIC [26]: 0.1 µg/mL (≈ 0.409 µM); MIC [27]: 0.2 µg/mL (≈ 0.819 µM); MIC [28]: 2 µg/mL (≈ 8.19 µM); MIC [29]: 4 µg/mL (≈ 16.4 µM); MIC [30]: 1 µg/mL (≈ 4.09 µM); half-life [31]: 2.2 h
